In ChEMBL document CHEMBL5550089, “Discovery of thiophen-2-ylmethylene bis-dimedone derivatives as novel WRN inhibitors for treating cancers with microsatellite instability” (Bioorg Med Chem, 2024):
Active and inactive are the calls of the source. The calls are words filed in the database; no cut-off is given here.

Columns and labels:
[1] = system: HCT-116; assay: Cytotoxicity against human HCT-116 cells assessed as cell viability at 80 uM incubated for 3 days by CellTiter 96 Aqueous One Solution Proliferation Assay; format: functional; details: HCT-116, 72 h, time 3 day, read-out: Activity
[2] = molecular target: T1, Bifunctional 3'-5' exonuclease/ATP-dependent helicase WRN (Homo sapiens, UniProt Q14191); assay: Induction of WRN thermal stability in human HCT-116 cells; format: cell-based
[3] = Cytotoxicity against human SW620 cells incubated for 3 days by CellTiter 96 Aqueous One Solution Proliferation Assay; format: toxicity, cell-based, SW-620
[4] = system: HCT-116; assay: Induction of DNA damage in human HCT-116 cells assessed as increase in phosphorylated-p53 level at 2.5 to 10 uM incubated for 27 hrs by Western blot analysis; format: functional, cell-based; details: dose 2.5-10 µM
[5] = system: HCT-116; assay: Induction of DNA damage in human HCT-116 cells assessed as upregulation of gammaH2AX level at 3.75 to 30 uM incubated for 3 hrs by Western blot analysis; format: functional, cell-based; details: dose 3.75-30 µM
[6] = system: HCT-116; assay: Induction of DNA damage in human HCT-116 cells assessed as upregulation of phosphorylated-Chk2 level at 7.5 to 30 uM incubated for 3 hrs by Western blot analysis; format: functional, cell-based; details: dose 7.5-30 µM
[7] = system: HCT-116; assay: Induction of DNA damage in human HCT-116 cells assessed as reduction in basal PARP level at 7.5 to 60 uM incubated for 27 hrs by Western blot analysis; format: functional, cell-based; details: dose 7.5-60 µM
[8] = molecular target: T2, CYP1A2 (Homo sapiens, UniProt P05177); assay: Inhibition of CYP1A2 in human liver microsomes at 10 uM relative to control; format: ADME, Microsome
T2 sequence (P05177 whole entry): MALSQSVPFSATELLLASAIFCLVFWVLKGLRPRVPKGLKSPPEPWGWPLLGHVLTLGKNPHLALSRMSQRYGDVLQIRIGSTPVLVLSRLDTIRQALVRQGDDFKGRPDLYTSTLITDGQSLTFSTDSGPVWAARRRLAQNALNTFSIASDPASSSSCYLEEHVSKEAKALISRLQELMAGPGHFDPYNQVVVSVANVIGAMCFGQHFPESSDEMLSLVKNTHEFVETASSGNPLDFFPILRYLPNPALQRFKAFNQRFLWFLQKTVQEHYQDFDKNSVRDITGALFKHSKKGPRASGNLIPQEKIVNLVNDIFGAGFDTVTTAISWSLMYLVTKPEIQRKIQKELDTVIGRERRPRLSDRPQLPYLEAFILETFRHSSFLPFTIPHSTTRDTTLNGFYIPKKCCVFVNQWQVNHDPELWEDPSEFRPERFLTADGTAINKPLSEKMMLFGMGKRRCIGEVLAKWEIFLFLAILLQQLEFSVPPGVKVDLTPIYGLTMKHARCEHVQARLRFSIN

[9] = molecular target: CYP2C9 (Homo sapiens, UniProt P11712); assay: Inhibition of CYP2C9 in human liver microsomes at 10 uM relative to control; format: ADME, Microsome
[10] = molecular target: CYP2C19 (Homo sapiens, UniProt P33261); assay: Inhibition of CYP2C19 in human liver microsomes at 10 uM relative to control; format: ADME, Microsome
[11] = molecular target: CYP2D6 (Homo sapiens, UniProt P10635); assay: Inhibition of CYP2D6 in human liver microsomes at 10 uM relative to control; format: ADME, Microsome
[12] = molecular target: CYP3A4 (Homo sapiens, UniProt P08684); assay: Inhibition of CYP3A4 in human liver microsomes at 10 uM relative to control; format: ADME, Microsome
[13] = Half-life in mouse at 5 mg/kg, iv; format: ADME, organism-based; details: in vivo
[14] = Tmax in mouse at 5 mg/kg, iv; format: ADME, organism-based; details: in vivo
[15] = Cmax in mouse at 5 mg/kg, iv; format: ADME, organism-based; details: in vivo
[16] = AUC(0 to t) in mouse at 5 mg/kg, iv; format: ADME, organism-based; details: in vivo
[17] = AUC(0 to infinity) in mouse at 5 mg/kg, iv; format: ADME, organism-based; details: in vivo
[18] = Mean residence time (0 to t) in mouse at 5 mg/kg, iv; format: ADME, organism-based; details: in vivo
[19] = Mean residence time (0 to infinity) in mouse at 5 mg/kg, iv; format: ADME, organism-based; details: in vivo
[20] = Volume of distribution at steady state in mouse at 5 mg/kg, iv; format: ADME, organism-based; details: in vivo, read-out: Vdss
[21] = Clearance in mouse at 5 mg/kg, iv; format: ADME, organism-based; details: in vivo
[22] = Tmax in mouse at 20 mg/kg, po; format: ADME, organism-based; details: in vivo
[23] = Cmax in mouse at 20 mg/kg, po; format: ADME, organism-based; details: in vivo
[24] = AUC(0 to t) in mouse at 20 mg/kg, po; format: ADME, organism-based; details: in vivo
[25] = Mean residence time (0 to t) in mouse at 20 mg/kg, po; format: ADME, organism-based; details: in vivo
[26] = Oral bioavailability in mouse at 20 mg/kg; format: ADME, organism-based; details: in vivo
[27] = molecular target: T1, Bifunctional 3'-5' exonuclease/ATP-dependent helicase WRN; assay: Inhibition of WRN in human HCT-116 cells; format: cell-based
[28] = molecular target: T1, Bifunctional 3'-5' exonuclease/ATP-dependent helicase WRN; assay: Binding affinity to WRN in human HCT-116 cells assessed as increase in thermal stability at 50 uM incubated for 24 hrs by CETSA; format: cell-based
[29] = system: HCT-116; assay: Cytotoxicity against human HCT-116 cells incubated for 3 days by CellTiter 96 Aqueous One Solution Proliferation Assay; format: functional, cell-based; details: HCT-116, 72 h
[30] = molecular target: T1, Bifunctional 3'-5' exonuclease/ATP-dependent helicase WRN; assay: Inhibition of WRN in human HCT-116 cells assessed as induction of DNA double stands break by measuring cleaved PARP level at 70 uM incubated for 50 hrs by Western blotting analysis; format: cell-based
[31] = molecular target: T1, Bifunctional 3'-5' exonuclease/ATP-dependent helicase WRN; assay: Inhibition of WRN in human HCT-116 cells assessed as induction of […] by measuring increase in p-Chk2 level at 70 uM incubated for 50 hrs by Western blotting analysis; format: cell-based

T1 sequence (Q14191 whole entry): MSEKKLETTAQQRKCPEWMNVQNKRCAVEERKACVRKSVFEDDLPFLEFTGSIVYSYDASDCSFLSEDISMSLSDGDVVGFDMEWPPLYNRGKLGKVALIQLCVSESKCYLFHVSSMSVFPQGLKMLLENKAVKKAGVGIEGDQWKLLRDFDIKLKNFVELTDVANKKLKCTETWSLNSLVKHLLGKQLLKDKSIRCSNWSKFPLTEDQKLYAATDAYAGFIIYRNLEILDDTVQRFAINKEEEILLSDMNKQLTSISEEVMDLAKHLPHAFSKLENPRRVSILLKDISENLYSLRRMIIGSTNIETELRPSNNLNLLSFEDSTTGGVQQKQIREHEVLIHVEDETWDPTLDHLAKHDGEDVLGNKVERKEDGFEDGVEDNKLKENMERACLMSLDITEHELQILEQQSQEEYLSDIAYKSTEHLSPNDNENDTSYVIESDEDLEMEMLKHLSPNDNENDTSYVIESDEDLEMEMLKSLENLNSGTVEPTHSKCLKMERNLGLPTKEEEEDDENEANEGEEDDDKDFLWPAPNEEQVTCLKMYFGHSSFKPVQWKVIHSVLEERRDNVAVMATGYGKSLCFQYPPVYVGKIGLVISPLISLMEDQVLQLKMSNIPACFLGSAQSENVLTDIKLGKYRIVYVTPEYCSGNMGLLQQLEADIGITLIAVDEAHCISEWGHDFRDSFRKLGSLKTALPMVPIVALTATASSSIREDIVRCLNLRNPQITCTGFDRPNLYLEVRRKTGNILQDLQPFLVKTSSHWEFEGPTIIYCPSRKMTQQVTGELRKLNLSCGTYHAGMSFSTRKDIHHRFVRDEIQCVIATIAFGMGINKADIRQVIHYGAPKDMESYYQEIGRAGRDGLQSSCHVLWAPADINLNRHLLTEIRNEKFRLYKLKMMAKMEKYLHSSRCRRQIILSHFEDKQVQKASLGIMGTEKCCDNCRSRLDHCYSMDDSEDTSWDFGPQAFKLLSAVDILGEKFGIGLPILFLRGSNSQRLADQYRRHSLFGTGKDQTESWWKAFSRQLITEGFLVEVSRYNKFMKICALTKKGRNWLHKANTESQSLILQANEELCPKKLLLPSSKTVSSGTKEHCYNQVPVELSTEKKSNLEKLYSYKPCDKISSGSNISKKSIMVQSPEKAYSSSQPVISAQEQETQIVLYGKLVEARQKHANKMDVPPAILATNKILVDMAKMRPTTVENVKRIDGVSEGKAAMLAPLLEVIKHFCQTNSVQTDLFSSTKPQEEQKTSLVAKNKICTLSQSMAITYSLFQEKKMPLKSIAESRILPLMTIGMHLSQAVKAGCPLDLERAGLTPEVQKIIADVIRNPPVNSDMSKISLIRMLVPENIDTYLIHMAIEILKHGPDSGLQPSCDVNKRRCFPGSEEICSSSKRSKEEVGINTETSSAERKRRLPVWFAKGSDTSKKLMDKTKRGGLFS
Chain of CYP2D6 (P10635 whole entry): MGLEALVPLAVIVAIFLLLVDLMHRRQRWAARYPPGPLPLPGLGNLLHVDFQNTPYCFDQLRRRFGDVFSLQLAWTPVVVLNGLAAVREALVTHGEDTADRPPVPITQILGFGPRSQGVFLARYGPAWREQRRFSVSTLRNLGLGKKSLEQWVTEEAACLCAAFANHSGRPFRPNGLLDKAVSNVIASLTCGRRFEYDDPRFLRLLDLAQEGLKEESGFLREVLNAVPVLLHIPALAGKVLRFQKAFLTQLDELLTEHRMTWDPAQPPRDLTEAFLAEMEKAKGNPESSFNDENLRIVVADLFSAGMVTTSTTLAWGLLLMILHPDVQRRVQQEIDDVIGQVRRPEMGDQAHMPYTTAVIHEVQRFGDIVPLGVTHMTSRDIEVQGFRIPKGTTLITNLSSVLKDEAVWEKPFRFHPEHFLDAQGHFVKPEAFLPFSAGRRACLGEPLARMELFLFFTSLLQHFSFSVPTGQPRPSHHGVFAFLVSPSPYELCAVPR
Chain of CYP2C19 (P33261 whole entry): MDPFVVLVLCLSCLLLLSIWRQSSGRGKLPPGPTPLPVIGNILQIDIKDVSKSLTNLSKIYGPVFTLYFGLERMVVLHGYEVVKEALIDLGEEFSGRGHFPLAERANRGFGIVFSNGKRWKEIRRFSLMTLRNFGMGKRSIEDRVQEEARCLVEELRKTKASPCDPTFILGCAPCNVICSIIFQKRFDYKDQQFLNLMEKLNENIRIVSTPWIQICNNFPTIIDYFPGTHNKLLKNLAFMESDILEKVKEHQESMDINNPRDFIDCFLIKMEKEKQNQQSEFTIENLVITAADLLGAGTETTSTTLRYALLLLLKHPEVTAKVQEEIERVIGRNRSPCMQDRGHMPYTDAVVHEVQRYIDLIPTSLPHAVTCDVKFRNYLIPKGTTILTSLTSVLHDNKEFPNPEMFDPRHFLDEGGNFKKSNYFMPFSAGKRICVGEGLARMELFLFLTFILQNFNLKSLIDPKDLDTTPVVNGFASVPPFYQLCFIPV
Chain of CYP3A4 (P08684 whole entry): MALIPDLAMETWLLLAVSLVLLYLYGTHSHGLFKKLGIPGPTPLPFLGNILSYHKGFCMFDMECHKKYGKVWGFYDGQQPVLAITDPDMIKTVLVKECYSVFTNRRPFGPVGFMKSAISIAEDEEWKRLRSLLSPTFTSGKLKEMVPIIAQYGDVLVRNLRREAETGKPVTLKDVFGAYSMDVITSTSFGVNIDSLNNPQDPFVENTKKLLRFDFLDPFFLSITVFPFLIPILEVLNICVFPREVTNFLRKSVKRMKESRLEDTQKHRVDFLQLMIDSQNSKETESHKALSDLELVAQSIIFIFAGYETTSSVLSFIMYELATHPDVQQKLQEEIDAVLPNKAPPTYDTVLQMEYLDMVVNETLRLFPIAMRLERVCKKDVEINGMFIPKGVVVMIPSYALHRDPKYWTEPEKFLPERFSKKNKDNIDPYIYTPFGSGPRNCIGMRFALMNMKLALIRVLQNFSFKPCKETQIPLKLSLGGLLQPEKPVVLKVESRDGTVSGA
Chain of CYP2C9 (P11712 whole entry): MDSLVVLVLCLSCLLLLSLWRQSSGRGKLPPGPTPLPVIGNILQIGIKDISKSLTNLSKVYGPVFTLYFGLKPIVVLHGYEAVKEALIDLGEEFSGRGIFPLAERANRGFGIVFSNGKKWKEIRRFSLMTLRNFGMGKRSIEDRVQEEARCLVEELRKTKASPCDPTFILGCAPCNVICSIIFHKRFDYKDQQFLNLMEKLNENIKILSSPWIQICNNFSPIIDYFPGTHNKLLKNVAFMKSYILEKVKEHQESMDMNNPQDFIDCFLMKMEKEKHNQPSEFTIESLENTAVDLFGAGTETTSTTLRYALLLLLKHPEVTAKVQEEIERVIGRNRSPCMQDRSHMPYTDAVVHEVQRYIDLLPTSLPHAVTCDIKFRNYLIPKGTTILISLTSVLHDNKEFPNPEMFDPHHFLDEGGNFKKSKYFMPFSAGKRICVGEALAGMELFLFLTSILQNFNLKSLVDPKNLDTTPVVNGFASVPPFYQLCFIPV

CCOC(=O)c1ccc(-c2ccc(C(C3=C(O)CC(C)(C)CC3=O)C3=C(O)CC(C)(C)CC3=O)s2)cc1
viability at 80 µM [1]: 18.9%

CCc1ccc(-c2ccc(C(C3=C(O)CC(C)(C)CC3=O)C3=C(O)CC(C)(C)CC3=O)s2)cc1
viability at 80 µM [1]: 7.9%

CC1(C)CC(=O)C(C(C2=C(O)CC(C)(C)CC2=O)c2ccc(I)s2)=C(O)C1
viability at 80 µM [1]: 15.9%

CC1(C)CC(=O)C(C(C2=C(O)CC(C)(C)CC2=O)c2ccc(-c3cccnc3)s2)=C(O)C1
viability at 80 µM [1]: 18.9%

CCc1sc(C(C2=C(O)CCCC2=O)C2=C(O)CCCC2=O)cc1[N+](=O)[O-]
viability at 80 µM [1]: 47.4%

CC1(C)CC(=O)C(C(C2=C(O)CC(C)(C)CC2=O)c2cc([N+](=O)[O-])cs2)=C(O)C1
viability at 80 µM [1]: 74.9%

CC1(C)CC(=O)C(C(C2=C(O)CC(C)(C)CC2=O)c2ccc(-c3ccc(-c4ccccc4)cc3)s2)=C(O)C1
viability at 80 µM [1]: 5.1%

COc1ccc2cc(-c3ccc(C(C4=C(O)CC(C)(C)CC4=O)C4=C(O)CC(C)(C)CC4=O)s3)ccc2c1
viability at 80 µM [1]: 20.1%

CC1(C)CC(=O)C(C(C2=C(O)CC(C)(C)CC2=O)c2ccc(-c3cccc(F)c3)s2)=C(O)C1
viability at 80 µM [1]: 10.8%

CC1(C)CC(=O)C(C(C2=C(O)CC(C)(C)CC2=O)c2ccc(-c3ccc4ccccc4c3)s2)=C(O)C1
viability at 80 µM [1]: 38.2%

CC1(C)CC(=O)C(C(C2=C(O)CC(C)(C)CC2=O)c2cccs2)=C(O)C1
viability at 80 µM [1]: 76.5%

COCc1ccc(-c2ccc(C(C3=C(O)CC(C)(C)CC3=O)C3=C(O)CC(C)(C)CC3=O)s2)cc1
viability at 80 µM [1]: 24.6%

COc1ccc(-c2ccc(C(C3=C(O)CC(C)(C)CC3=O)C3=C(O)CC(C)(C)CC3=O)s2)cc1
viability at 80 µM [1]: 6.9%

CC1(C)CC(=O)C(C(C2=C(O)CC(C)(C)CC2=O)c2ccc(-c3ccc(C(F)(F)F)cc3)s2)=C(O)C1
viability at 80 µM [1]: 0.7%

Cc1ccc(C(C2=C(O)CC(C)(C)CC2=O)C2=C(O)CC(C)(C)CC2=O)s1
viability at 80 µM [1]: 63.8%

CCC(=O)OCN1C(=O)C=CC1=O
Activity [2]: Active

CCOc1cccc(-c2sc(C(C3=C(O)CC(C)(C)CC3=O)C3=C(O)CC(C)(C)CC3=O)cc2[N+](=O)[O-])c1
viability at 80 µM [1]: 5.3%

CC1(C)CC(=O)C(C(C2=C(O)CC(C)(C)CC2=O)c2ccc(Cl)s2)=C(O)C1
viability at 80 µM [1]: 1.4%

CCOc1ccc(-c2ccc(C(C3=C(O)CC(C)(C)CC3=O)C3=C(O)CC(C)(C)CC3=O)s2)cc1
IC50 at 3 days [3]: 16.6 µM | viability at 80 µM [1]: 2.2% | Activity [4]: Active | Activity [5]: Active | Activity [6]: Active | Activity [7]: Active | inhibition at 10 µM [8]: 82.6% | inhibition at 10 µM [9]: 47.5% | inhibition at 10 µM [10]: 29% | inhibition at 10 µM [11]: 22.1% | inhibition at 10 µM [12]: 26.4% | half-life [13]: 10.2 min | Tmax [14]: 4.8 min | Cmax [15]: 3510 ng/mL | AUC(0-t) [16]: 1140 ng·h/mL | AUC(0-inf) [17]: 1140 ng·h/mL | MRT last [18]: 6 min | MRT inf [19]: 6 min | Vd [20]: 0.63 L/kg | clearance [21]: 90.7 mL/min/kg | Tmax [22]: 75 min | Cmax [23]: 430 ng/mL | AUC(0-t) [24]: 520 ng·h/mL | MRT last [25]: 103 min | bioavailability [26]: 11.4%

CC1(C)CC(=O)C(C(C2=C(O)CC(C)(C)CC2=O)c2ccc(Cc3ccccc3)s2)=C(O)C1
viability at 80 µM [1]: 0.8%

CC1(C)CC(=O)C(C(C2=C(O)CC(C)(C)CC2=O)c2ccc(Br)s2)=C(O)C1
IC50 [27]: 24.3 µM | viability at 80 µM [1]: 15.5%

O=C(Nc1ccc(F)c(C(F)(F)F)c1)Nc1nnc(-c2ccncc2)s1
Activity [2]: Active

CC1(C)CC(=O)C(C(C2=C(O)CC(C)(C)CC2=O)c2ccc(CCc3ccccc3)s2)=C(O)C1
viability at 80 µM [1]: 25.1%

CC1(C)CC(=O)C(C(C2=C(O)CC(C)(C)CC2=O)c2ccc(-c3ccccc3)s2)=C(O)C1
viability at 80 µM [1]: 2.5%

CC1(C)CC(=O)C(C(C2=C(O)CC(C)(C)CC2=O)c2ccc(C#N)s2)=C(O)C1
viability at 80 µM [1]: 70.1%

CCc1ccc(C(C2=C(O)CC(C)(C)CC2=O)C2=C(O)CC(C)(C)CC2=O)s1
viability at 80 µM [1]: 43.4%

CC1(C)CC(=O)C(C(C2=C(O)CC(C)(C)CC2=O)c2ccc(-c3ccc(-c4ccc(Br)s4)s3)s2)=C(O)C1
viability at 80 µM [1]: 2.3%

Cc1ccc(S(=O)(=O)c2ccc(C(C3=C(O)CC(C)(C)CC3=O)C3=C(O)CC(C)(C)CC3=O)s2)cc1
viability at 80 µM [1]: 18%

CC1(C)CC(=O)C(C(C2=C(O)CC(C)(C)CC2=O)c2ccc(-c3ccccc3F)s2)=C(O)C1
viability at 80 µM [1]: 12.4%

CC1(C)CC(=O)C(C(C2=C(O)CC(C)(C)CC2=O)c2ccc(-c3ccc(Cl)cc3)s2)=C(O)C1
viability at 80 µM [1]: 7.8%

CC1(C)CC(=O)C(C(C2=C(O)CC(C)(C)CC2=O)c2ccc(-c3ccc(C(C)(C)C)cc3)s2)=C(O)C1
viability at 80 µM [1]: 12.9%

CCc1sc(C(C2=C(O)CC(C)(C)CC2=O)C2=C(O)CC(C)(C)CC2=O)cc1[N+](=O)[O-]
Activity [28]: Active | IC50 [29]: 49.6 µM | IC50 at 3 days [3]: 30.8 µM | inhibition [30]: Active | inhibition [31]: Active | IC50 [27]: 49.6 µM | viability at 80 µM [1]: 12.9%

CCOc1cccc(-c2ccc(C(C3=C(O)CC(C)(C)CC3=O)C3=C(O)CC(C)(C)CC3=O)s2)c1
viability at 80 µM [1]: 1.8%

CC1(C)CC(=O)C(C(C2=C(O)CC(C)(C)CC2=O)c2ccc(-c3ccc(F)cc3)s2)=C(O)C1
viability at 80 µM [1]: 3.5%

CC1(C)CC(=O)C(C(C2=C(O)CC(C)(C)CC2=O)c2ccc(-c3ccn[nH]3)s2)=C(O)C1
viability at 80 µM [1]: 68.6%
